Test results: ChEMBL document CHEMBL2086263, “Synthesis and SAR studies of 3-allyl-4-prenyloxyaniline amides as potent 15-lipoxygenase inhibitors” (Bioorg Med Chem, 2012)

Assays:
[1] = Inhibition of soybean 15-lipoxygenase using linoleic acid as substrate incubated for 5 mins prior to substrate addition measured after 7 mins by DMAB-MBTH method; parameters: species or system Glycine max
[2] = tested on: Radical scavenging activity; assay: Antioxidant activity assessed as inhibition of DPPH radical scavenging activity after 30 mins by spectrophotometry; type: functional

Row | Compound | IC50 [1] [µM] | IC50 [2] [µM]
1 | C=CCOc1ccc(NC(=O)C2CC2)cc1CC=C | 54.1 | –
2 | C=CCc1cc(NC(=O)C2CC2)ccc1OC/C=C(\C)CC/C=C(\C)CCC=C(C)C | 16.5 | 8.9
3 | C=CCc1cc(NC(C)=O)ccc1OC/C=C(\C)CC/C=C(\C)CCC=C(C)C | 24.8 | 225
4 | C=CCc1cc(NC(=O)C2CCC2)ccc1OC/C=C(\C)CC/C=C(\C)CCC=C(C)C | 2.1 | 140
5 | C=CCOc1ccc(NC(=O)C2CCCCC2)cc1CC=C | 18.5 | –
6 | C=CCOc1ccc(NC(=O)C23CC4CC(CC(C4)C2)C3)cc1 | 27.8 | –
7 | CC(Cc1ccc(O)c(O)c1)C(C)Cc1ccc(O)c(O)c1 (stereo unspecified) [NORDIHYDROGUAIARETIC ACID] | – | 6.2
8 | C=CCc1cc(NC(=O)C23CC4CC(CC(C4)C2)C3)ccc1OCC=C(C)C | 10.3 | 105
9 | Cc1nc(N2CCN(C)CC2)nc2c1Nc1ccccc1S2 | 28.2 | –
10 | C=CCOc1ccc(NC(=O)C2CCCC2)cc1CC=C | 58 | –
11 | C=CCOc1ccc(NC(C)=O)cc1CC=C | 67.8 | –
12 | C=CCOc1ccc(NC(=O)C23CC4CC(CC(C4)C2)C3)cc1CC=C | 9.8 | –
13 | C=CCc1cc(NC(=O)C2CCCC2)ccc1OC/C=C(\C)CC/C=C(\C)CCC=C(C)C | 35.7 | 461
14 | C=CCc1cc(NC(=O)C23CC4CC(CC(C4)C2)C3)ccc1OC/C=C(\C)CC/C=C(\C)CCC=C(C)C | 0.69 | 114
15 | C=CCOc1ccc(NC(=O)C2CCC2)cc1CC=C | 19.6 | –
16 | C=CCc1cc(NC(=O)C23CC4CC(CC(C4)C2)C3)ccc1OC/C=C(\C)CCC=C(C)C | 3.6 | 121
17 | O=C(O)/C=C/c1ccc(O)c(O)c1 [CAFFEIC ACID] | 37.1 | –
18 | C=CCc1cc(NC(=O)C2CCCCC2)ccc1OC/C=C(\C)CC/C=C(\C)CCC=C(C)C | 5.2 | 529
